The subject of data set [1] is LPS-stimulated pregnant mice. The following applies: Koscica et al. 2004, Wang et al. 2008; cited from earlier work.
In data set [2] the test system is LPS-induced influx of neutrophils into the lung. The following applies: Bhavsar et al. 2008a, 2008b; cited from earlier work.
In data set [3] the test system is BALF neutrophils in female Syrian hamsters. As to the kind of experiment: Animal model of smoking related acute lung injury (ET-1 plus cigarette smoke, BALF neutrophils). It counts as in vivo, hamster. As to the method: Animal models of smoking related acute lung injury. The Animal Care and Utilization Committee of the College of Pharmacy and Allied Health Professions, St. John's University approved all experimental protocols, and the research was conducted according to the requirements of NIH Guide for the Care and Use of Laboratory Animals (revised 1996).
Female Syrian hamsters, weighing approximately 100 g each, were divided into two groups as follows: Group 1 was treated IP with: 1) 500 μg of HJP272 in 0.5 mL Na2CO3 and 2) 5 μg ET-1 in 0.25 mL PBS 60 minutes later, followed immediately by exposure to cigarette smoke for two hours. This regimen was continued for three days.
Group 2 was treated IP with: 1) 0.5 mL Na2CO3 and 2) […] ET-1 in 0.25 mL PBS 60 minutes later, followed immediately by exposure to cigarette smoke for three consecutive days as per Group 1. The animals were placed in a 70×48×38 cm chamber and passively exposed to cigarette smoke produced by a TE-10 smoking machine (Teague Enterprises, Davis, Calif.) that simultaneously burned two filtered research-grade cigarettes (type 2R4F, University of Kentucky). Smoke from both the filtered and burning ends of the cigarette was collected, and then mixed together with air in a separate chamber, thus simulating second-hand smoke exposure. Each cigarette was puffed once per minute for two seconds at a flow rate of 1.05 LPM, yielding 35 mL of smoke. This cycle was repeated nine times before ejecting the cigarette and loading a new one. Proper flow rate was maintained by a vacuum pump that established negative pressure at the exhaust port. Total smoke particulates averaged 87 mg per cubic meter.
All animals were sacrificed 24 hours after completing the smoke exposure regimen to maximize the neutrophil population in the lung, and the percentage of BALF neutrophils was measured (van der Vaart et al. 2004)

Positions of bridges follow the written chain, without caps; N, C: chain ends. Non-standard residues stand in square brackets, D forms with d. Residues, ends and D or L forms follow the SMILES beside them. No end group written: not given here.

With `CC(C)C[C@@H]1NC(=O)[C@@H](C(C)C)NC(=O)[C@@H]2CCCN2C(=O)[C@@H](CC(=O)O)NC(=O)[C@@H](Cc2c[nH]c3ccccc23)NC1=O` [BQ-123] (cyclo(L[dW][dD]P[dV])), the “incidence of premature delivery” value in data set [1] is recorded as “decreased incidence of premature delivery”.
A word on the melting point: it is the temperature, or range, at which the solid turns liquid. `CCOc1ccc2c(c1)c(=O)c(Cc1cccc(C(=O)O)c1)c(C(=O)O)n2Cc1cc2c(cc1CC)OCO2` [Product 1o, 3-(3-carboxybenzyl)-6-ethoxy-1-((6-ethylbenzo[d][1,3]dioxol-5-yl)methyl)-4-oxo-1,4-dihydroquinoline-2-carboxylic acid] yielded a melting point of 213 to 215 °C.
Turning to `CCCOc1ccc2c(c1)c(=O)c(Cc1cccc(C(=O)O)c1)c(C(=O)O)n2Cc1cc2c(cc1CC)OCO2` [Product 1p, 3-(3-carboxybenzyl)-1-((6-ethylbenzo[d][1,3]dioxol-5-yl)methyl)-4-oxo-6-propoxy-1,4-dihydroquinoline-2-carboxylic acid], the melting point was 162 to 163 °C.
`CCc1cc2c(cc1Cn1c(C(=O)O)c(Cc3cccc(C(=O)O)c3)c(=O)c3cc(OC(C)C)ccc31)OCO2` [Product 1q, 3-(3-carboxybenzyl)-1-((6-ethylbenzo[d][1,3]dioxol-5-yl)methyl)-6-isopropoxy-4-oxo-1,4-dihydroquinoline-2-carboxylic acid]: the melting point lay within 199 to 200 °C.
Turning to `C=CCOc1ccc2c(c1)c(=O)c(Cc1cccc(C(=O)O)c1)c(C(=O)O)n2Cc1cc2c(cc1CC)OCO2` [Product 1r, 6-(allyloxy)-3-(3-carboxybenzyl)-1-((6-ethylbenzo[d][1,3]dioxol-5-yl)methyl)-4-oxo-1,4-dihydroquinoline-2-carboxylic acid], the melting point was 165 to 166 °C.
The compound `CCCCOc1ccc2c(c1)c(=O)c(Cc1cccc(C(=O)O)c1)c(C(=O)O)n2Cc1cc2c(cc1CC)OCO2` [Product 1t, 6-butoxy-3-(3-carboxybenzyl)-1-((6-ethylbenzo[d][1,3]dioxol-5-yl)methyl)-4-oxo-1,4-dihydroquinoline-2-carboxylic acid] returned a melting point of 161 to 162 °C.
`CCc1cc2c(cc1Cn1c(C(=O)O)c(Cc3cccc(C(=O)O)c3)c(=O)c3cc(OCC(C)C)ccc31)OCO2` [Product 1u, 3-(3-carboxybenzyl)-1-((6-ethylbenzo[d][1,3]dioxol-5-yl)methyl)-6-isobutoxy-4-oxo-1,4-dihydroquinolin-2-carboxylic] yielded a melting point of 185 to 186 °C.
Turning to `CCc1cc2c(cc1Cn1c(C(=O)O)c(Cc3cccc(C(=O)O)c3)c(=O)c3cc(OCC4CC4)ccc31)OCO2` [Product 1w, 3-(3-carboxybenzyl)-6-(cyclopropylmethoxy)-1-((6-ethylbenzo[d][1,3]dioxol-5-yl)methyl)-4-oxo-1,4-dihydroquinoline-2-carboxylic acid], the melting point lay in the range of 229 to 231 °C.
Take `CCCCCOc1ccc2c(c1)c(=O)c(Cc1cccc(C(=O)O)c1)c(C(=O)O)n2Cc1cc2c(cc1CC)OCO2` [Product 1x, 3-(3-carboxybenzyl)-1-((6-ethylbenzo[d][1,3]dioxol-5-yl)methyl)-4-oxo-6-(pentyloxy)-1,4-dihydroquinoline-2-carboxylic acid]: the melting point was in the range of 152 to 155 °C.
Take `CCc1cc2c(cc1Cn1c(C(=O)O)c(Cc3cccc(C(=O)O)c3)c(=O)c3cc(OCCCO)ccc31)OCO2` [Product 1y, 3-(3-carboxybenzyl)-1-((6-ethylbenzo[d][1,3]dioxol-5-yl)methyl)-6-(3-hydroxypropoxy)-4-oxo-1,4-dihydroquinoline-2-carboxylic acid]: the melting point lay within 192 to 194 °C.
As for `CC(C)C[C@H](NP(=O)(O)O[C@@H]1O[C@@H](C)[C@H](O)[C@@H](O)[C@H]1O)C(=O)N[C@@H](Cc1c[nH]c2ccccc12)C(=O)O` [phosphoramidon], in data set [1], the “incidence of premature delivery” value is listed as “decreases the incidence of premature delivery”. Moreover, the “LPS-induced influx of neutrophils into the lung” value in data set [2] is reported as “markedly reduces”.
Take “Endothelin-1 (CSCSSLMDKECVYFCHLDIIW; disulfide 1-15, 3-11; ends not checked; UniProt P05305 53-73, looked up) [ET-1, reference compound]”: the “percentage of BALF neutrophils” value was determined as 1% in data set [3] (ET-1 and room air); 46% in data set [3] (ET-1 prior to cigarette smoke, smoke-only control 18%).

Values taken from patent publication US20090143426A1, “Synthesis of 1,3,6-trisubstituted-2-carboxyquinol-4-ones as selective ET A antagonists and their use as medicaments” (priority 2007, published 2009).
